{"source": "patent US8795978B2", "about": "“Modulating latency and reactivation of Mycobacterium tuberculosis” (priority 2007, dated 2014)", "key": {"DosS [1]": {"target": "T1, DosS (Mycobacterium tuberculosis, UniProt P9WGK3)", "T1 sequence (P9WGK3 whole entry)": "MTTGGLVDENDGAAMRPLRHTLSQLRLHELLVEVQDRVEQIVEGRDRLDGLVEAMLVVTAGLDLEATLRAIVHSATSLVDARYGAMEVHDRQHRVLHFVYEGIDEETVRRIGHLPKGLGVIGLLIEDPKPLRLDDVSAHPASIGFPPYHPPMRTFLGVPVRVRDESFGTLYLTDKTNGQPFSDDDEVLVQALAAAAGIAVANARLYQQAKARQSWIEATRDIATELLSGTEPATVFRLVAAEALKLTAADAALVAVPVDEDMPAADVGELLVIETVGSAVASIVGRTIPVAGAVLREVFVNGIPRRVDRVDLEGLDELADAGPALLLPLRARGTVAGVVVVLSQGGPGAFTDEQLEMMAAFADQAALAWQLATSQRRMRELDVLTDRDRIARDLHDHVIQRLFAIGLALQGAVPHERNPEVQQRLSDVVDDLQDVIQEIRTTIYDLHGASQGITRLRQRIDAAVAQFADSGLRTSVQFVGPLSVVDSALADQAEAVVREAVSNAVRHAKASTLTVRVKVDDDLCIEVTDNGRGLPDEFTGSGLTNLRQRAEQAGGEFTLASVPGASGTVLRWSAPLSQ", "assay_type": "binding", "conditions": "for binding to DosS heme iron (heme-nitrosyl / heme-carbonyl formation): ferrous DosS (DTH treated), UV-visible and EPR spectroscopy"}, "DosT [2]": {"target": "T2, DosT (Mycobacterium tuberculosis, UniProt P9WGK1)", "T2 sequence (P9WGK1 whole entry)": "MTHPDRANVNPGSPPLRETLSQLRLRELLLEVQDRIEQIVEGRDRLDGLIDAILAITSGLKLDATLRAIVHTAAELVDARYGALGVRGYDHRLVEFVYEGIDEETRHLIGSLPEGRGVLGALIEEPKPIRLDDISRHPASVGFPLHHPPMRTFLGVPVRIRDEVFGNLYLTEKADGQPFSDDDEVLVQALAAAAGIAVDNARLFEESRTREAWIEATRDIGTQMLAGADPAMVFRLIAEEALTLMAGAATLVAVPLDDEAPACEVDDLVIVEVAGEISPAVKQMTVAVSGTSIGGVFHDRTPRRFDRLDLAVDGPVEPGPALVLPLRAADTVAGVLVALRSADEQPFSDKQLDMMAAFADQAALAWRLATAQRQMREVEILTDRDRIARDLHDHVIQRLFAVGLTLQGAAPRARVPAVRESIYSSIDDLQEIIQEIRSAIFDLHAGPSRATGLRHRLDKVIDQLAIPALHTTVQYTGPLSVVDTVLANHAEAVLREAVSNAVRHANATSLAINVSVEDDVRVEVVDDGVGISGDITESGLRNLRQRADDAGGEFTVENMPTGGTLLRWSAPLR", "assay_type": "binding", "conditions": "for binding to DosT heme iron (nitrosylated / carbonylated heme formation): deoxy DosT (DTH treated), UV-visible and EPR spectroscopy; for binding to DosT heme iron in the presence of O2: oxy DosT (Fe2+-O2)"}, "DosS [3]": {"target": "T1, DosS", "assay_type": "biochemical", "description": "(§1) In-vitro phosphorylation assays were performed according to previously described methods (Roberts et al., J. Biol. Chem., 2004, 279:22) and analyzed on 4-20% Tris-HCl gradient PAGE gels, dried and exposed to X-ray film overnight at −80° C. Formation of a heme-nitrosyl/carbonyl complex was first confirmed by absorption spectroscopy before analyzing samples for autokinase activity. As an additional control, air exposed samples were also treated with proline NONOate. The effect of CO on autokinase activity was measured similarly as described for NO, except that protein samples were flushed with 100% CO for 30 seconds. All autokinase reactions were performed inside the glove box."}, "DosT [4]": {"target": "T2, DosT", "assay_type": "biochemical", "description": "as §1"}, "[5]": {"conditions": "DTH reduced DosS (Fe2+) exposed to ligand, relative to met DosS"}}, "note": "Where two headings read alike, the source gives them in different places."}
{"smiles": "[C-]#[O+]", "note": "[CO, carbon monoxide]", "values": [{"measurement": "binding to DosS heme iron (heme-nitrosyl / heme-carbonyl formation)", "setting": "DosS [1]", "result": "generated heme-nitrosyl and heme-carbonyl DosS species"}, {"measurement": "binding to DosT heme iron (nitrosylated / carbonylated heme formation)", "setting": "DosT [2]", "result": "highly characteristic of the formation of nitrosylated and carbonylated heme species"}, {"measurement": "binding to DosT heme iron in the presence of O2", "setting": "DosT [2]", "result": "highly indicative of a heme-carbonyl complex"}, {"measurement": "effect on DosS autokinase activity", "setting": "DosS [3]; [5]", "result": "significantly increased autokinase activity as compared to inactive met DosS"}, {"measurement": "effect on DosS autokinase activity", "setting": "DosS [3]; met DosS (Fe3+) exposed to ligand", "result": "found not to generate any further autokinase activity"}, {"measurement": "rank of DosT autokinase activity", "setting": "DosT [4]; deoxy DosT (DTH reduced) treated with ligand vs untreated", "result": "deoxy DosT showed the highest autokinase activity, followed by CO-DosT and finally oxy DosT"}, {"measurement": "effect on DosT autokinase activity", "setting": "DosT [4]; oxy DosT treated with ligand on the bench", "result": "significantly enhanced autokinase activity compared to inactive oxy DosT"}]}
{"smiles": "[N]=O", "note": "[NO, nitric oxide]", "values": [{"measurement": "binding to DosS heme iron (heme-nitrosyl / heme-carbonyl formation)", "setting": "DosS [1]", "result": "binds DosS"}, {"measurement": "binding to DosT heme iron (nitrosylated / carbonylated heme formation)", "setting": "DosT [2]", "result": "binds deoxy DosT"}, {"measurement": "binding to DosT heme iron in the presence of O2", "setting": "DosT [2]", "result": "but not NO can effectively substitute O2 from oxy DosT"}, {"measurement": "effect on DosS autokinase activity", "setting": "DosS [3]; [5]", "result": "significantly increased autokinase activity to levels comparable to active ferrous DosS autokinase activity"}, {"measurement": "effect on DosT autokinase activity", "setting": "DosT [4]; ligand bound to DosT, compared with deoxy or oxy DosT", "result": "significantly increased autokinase activity as compared to inactive oxy DosT"}]}
{"smiles": "O=O", "note": "[O2, oxygen]", "values": [{"measurement": "effect on DosS heme iron oxidation state", "setting": "DosS [1]", "result": "rapidly oxidized by O2 to generate met DosS"}, {"measurement": "state of DosT heme iron after air exposure", "setting": "DosT [2]", "result": "air exposed DosT is in the oxygen bound (oxy) form"}, {"measurement": "effect on DosS autokinase activity", "setting": "DosS [3]", "result": "dramatically decreases its autokinase activity"}, {"measurement": "effect on DosT autokinase activity", "setting": "DosT [4]", "result": "inhibits autokinase activity"}]}
{"smiles": "O=C([O-])[C@@H]1CCCN1/[N+]([O-])=N/[O-].[Na+].[Na+]", "note": "[proline NONOate]", "values": [{"measurement": "binding to DosS heme iron (nitrosyl-heme EPR signal)", "setting": "DosS [1]; air exposed (met, Fe3+) DosS", "result": "no EPR signal characteristic of a nitrosyl-heme species was generated"}, {"measurement": "binding to DosT heme iron in the presence of O2", "setting": "DosT [2]", "result": "did not generate any detectable nitrosyl-heme species"}]}
